Data: patent US9340590B2 (priority 2011, dated 2016)
Where two headings read alike, the source gives them in different places. Positions of bridges follow the written chain, without caps; N, C: chain ends. Non-standard residues stand in square brackets, D forms with d. Residues, ends and D or L forms follow the SMILES beside them. 1Nal = N[C@@H](Cc1cccc2ccccc12)C(=O)O

Legend:
Assay in all cases: cell-based
[1] = target: T1, hNav1.7 (Homo sapiens, UniProt Q15858); details: Nav1.7 Use IC50
[2] = target: T2, hNav1.5 (Homo sapiens, UniProt Q14524)
[3] = target: T3, hNav1.3 (Homo sapiens, UniProt Q9NY46); format: cell-based; details: for IC50: Nav1.3 Use IC50
T3 sequence (Q9NY46 whole entry, looked up): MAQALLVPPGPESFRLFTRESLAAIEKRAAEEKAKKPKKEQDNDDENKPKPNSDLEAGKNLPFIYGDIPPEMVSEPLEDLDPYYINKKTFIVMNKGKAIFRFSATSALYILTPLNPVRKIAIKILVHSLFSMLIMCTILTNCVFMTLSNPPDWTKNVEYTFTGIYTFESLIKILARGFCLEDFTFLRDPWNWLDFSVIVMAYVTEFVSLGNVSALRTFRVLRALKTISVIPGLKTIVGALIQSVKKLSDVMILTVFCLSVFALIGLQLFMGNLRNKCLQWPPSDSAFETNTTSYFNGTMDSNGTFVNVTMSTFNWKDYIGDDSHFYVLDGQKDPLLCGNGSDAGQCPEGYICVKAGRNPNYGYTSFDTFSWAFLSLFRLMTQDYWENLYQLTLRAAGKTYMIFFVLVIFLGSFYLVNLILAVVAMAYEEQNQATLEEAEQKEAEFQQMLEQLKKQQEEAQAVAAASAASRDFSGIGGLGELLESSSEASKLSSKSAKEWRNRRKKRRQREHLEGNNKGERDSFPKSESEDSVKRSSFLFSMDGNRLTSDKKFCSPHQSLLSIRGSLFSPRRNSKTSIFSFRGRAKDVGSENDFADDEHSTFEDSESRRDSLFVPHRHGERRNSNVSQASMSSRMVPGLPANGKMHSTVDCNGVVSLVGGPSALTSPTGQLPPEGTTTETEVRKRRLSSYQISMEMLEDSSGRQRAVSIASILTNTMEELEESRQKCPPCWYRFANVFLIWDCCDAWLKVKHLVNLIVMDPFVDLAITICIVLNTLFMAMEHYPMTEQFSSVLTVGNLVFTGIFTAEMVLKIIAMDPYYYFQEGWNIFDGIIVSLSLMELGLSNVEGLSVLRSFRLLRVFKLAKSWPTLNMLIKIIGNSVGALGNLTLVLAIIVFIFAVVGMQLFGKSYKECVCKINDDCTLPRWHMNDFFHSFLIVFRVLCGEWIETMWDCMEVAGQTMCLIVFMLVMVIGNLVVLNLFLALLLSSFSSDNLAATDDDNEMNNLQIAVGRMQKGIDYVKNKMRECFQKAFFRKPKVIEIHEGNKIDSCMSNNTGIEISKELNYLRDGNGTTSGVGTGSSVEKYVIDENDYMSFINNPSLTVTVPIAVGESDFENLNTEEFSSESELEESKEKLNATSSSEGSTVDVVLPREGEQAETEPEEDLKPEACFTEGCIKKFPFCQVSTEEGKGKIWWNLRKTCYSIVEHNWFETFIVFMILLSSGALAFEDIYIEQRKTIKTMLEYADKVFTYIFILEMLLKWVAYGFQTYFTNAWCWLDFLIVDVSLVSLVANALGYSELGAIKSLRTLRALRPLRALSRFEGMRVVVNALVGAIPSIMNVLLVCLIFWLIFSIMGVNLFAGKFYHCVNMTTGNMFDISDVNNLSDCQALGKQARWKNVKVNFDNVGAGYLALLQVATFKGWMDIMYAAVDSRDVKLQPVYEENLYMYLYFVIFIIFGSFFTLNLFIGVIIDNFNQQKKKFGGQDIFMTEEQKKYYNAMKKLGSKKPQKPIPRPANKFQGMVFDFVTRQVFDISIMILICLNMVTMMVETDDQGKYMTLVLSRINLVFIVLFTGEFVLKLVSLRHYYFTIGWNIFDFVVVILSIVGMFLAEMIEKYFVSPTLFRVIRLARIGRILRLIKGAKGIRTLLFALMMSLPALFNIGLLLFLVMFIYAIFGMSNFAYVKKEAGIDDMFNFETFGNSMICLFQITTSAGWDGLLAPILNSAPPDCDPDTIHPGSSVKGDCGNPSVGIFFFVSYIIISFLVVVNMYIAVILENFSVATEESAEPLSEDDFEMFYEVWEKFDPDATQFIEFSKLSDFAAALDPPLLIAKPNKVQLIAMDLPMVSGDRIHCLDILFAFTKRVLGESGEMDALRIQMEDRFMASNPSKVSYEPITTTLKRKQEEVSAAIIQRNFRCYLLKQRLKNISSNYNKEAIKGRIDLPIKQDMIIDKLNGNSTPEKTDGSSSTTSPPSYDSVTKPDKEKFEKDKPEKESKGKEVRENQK

[4] = target: T3, hNav1.3; details: IonWorks Quattro; clamped to −110 mV, depolarized to −10 mV, 5 min after compound; n=2; read-out: IWQ Use Nav1.3
[5] = target: T1, hNav1.7; format: cell-based; details: IonWorks Quattro; clamped to −110 mV, depolarized to −10 mV, 5 min after compound; n=2; read-out: IWQ Use Nav1.7
[6] = target: T2, hNav1.5; details: IonWorks Quattro; clamped to −110 mV, depolarized to −10 mV, 5 min after compound; n=2; read-out: IWQ Use Nav1.5

T1 sequence (Q15858 whole entry, looked up): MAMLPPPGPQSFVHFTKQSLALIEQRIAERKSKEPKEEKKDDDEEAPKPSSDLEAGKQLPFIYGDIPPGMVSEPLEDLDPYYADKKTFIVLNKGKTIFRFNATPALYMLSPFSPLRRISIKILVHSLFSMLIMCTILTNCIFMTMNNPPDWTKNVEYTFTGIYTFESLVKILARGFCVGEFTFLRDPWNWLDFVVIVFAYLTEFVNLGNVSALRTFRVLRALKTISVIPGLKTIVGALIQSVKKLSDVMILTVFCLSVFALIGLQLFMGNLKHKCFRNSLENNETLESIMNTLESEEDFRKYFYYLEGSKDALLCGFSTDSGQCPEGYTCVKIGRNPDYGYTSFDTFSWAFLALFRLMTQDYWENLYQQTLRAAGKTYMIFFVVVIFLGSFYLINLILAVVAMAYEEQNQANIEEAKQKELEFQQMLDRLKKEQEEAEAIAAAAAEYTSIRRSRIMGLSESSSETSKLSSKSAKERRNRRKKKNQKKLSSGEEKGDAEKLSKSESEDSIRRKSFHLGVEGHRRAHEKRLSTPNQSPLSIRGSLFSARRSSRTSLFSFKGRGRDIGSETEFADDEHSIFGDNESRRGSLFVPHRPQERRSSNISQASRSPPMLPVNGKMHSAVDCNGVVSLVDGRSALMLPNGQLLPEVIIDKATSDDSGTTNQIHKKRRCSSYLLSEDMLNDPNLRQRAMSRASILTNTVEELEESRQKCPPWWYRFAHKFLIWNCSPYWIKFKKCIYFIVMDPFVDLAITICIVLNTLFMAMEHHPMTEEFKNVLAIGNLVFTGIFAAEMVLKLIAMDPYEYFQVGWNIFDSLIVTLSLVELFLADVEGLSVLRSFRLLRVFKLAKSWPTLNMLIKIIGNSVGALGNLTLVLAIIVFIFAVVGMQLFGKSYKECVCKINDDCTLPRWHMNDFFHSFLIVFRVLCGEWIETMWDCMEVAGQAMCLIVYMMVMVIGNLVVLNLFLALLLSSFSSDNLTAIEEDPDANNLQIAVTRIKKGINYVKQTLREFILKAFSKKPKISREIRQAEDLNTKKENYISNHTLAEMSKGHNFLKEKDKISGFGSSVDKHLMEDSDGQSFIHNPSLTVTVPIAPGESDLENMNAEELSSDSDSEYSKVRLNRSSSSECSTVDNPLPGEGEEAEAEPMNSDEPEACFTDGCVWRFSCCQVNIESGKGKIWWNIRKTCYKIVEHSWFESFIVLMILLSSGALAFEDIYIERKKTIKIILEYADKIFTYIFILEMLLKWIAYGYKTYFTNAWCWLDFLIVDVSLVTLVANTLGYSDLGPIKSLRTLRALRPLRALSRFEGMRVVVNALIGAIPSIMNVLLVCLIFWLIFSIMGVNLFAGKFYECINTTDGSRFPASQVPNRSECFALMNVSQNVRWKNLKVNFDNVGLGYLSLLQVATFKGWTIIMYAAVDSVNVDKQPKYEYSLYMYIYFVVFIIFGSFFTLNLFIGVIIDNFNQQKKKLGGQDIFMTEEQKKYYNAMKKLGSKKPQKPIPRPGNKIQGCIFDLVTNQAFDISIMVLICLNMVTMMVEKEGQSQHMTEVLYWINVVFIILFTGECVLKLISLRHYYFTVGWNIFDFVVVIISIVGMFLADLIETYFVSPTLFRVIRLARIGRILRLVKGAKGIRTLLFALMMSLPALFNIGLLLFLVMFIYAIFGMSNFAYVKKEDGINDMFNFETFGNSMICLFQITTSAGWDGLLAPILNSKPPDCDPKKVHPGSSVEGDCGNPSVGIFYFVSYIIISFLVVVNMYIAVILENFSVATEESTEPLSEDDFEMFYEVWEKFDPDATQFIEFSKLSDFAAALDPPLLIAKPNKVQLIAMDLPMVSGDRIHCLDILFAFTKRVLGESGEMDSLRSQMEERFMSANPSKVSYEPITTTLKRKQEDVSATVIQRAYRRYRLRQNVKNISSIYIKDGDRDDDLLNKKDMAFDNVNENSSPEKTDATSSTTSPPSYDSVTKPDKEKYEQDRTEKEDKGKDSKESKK

Q: `CC[C@H](C)[C@@H]1NC(=O)[C@@H]2CSSC[C@@H]3NC(=O)[C@H](C(C)C)NC(=O)[C@H](CC(C)C)NC(=O)[C@H](CC(N)=O)NC(=O)[C@@H]4CCCN4C(=O)[C@H](CCCNC(=N)N)NC(=O)[C@H](CSSC[C@H](NC(=O)[C@@H](N)CC(=O)O)C(=O)N[C@@H](CC(C)C)C(=O)NCC(=O)N[C@@H](Cc4ccccc4)C(=O)N[C@@H](CCSC)C(=O)N[C@@H](CCCNC(=N)N)C(=O)N[C@@H](CCCCN)C(=O)N2)NC(=O)[C@H](CSSC[C@@H](C(=O)N[C@@H](CCCCN)C(=O)N[C@@H](Cc2ccc(O)cc2)C(=O)N[C@H](C(=O)N[C@@H](Cc2ccccc2)C(=O)N[C@@H](Cc2c[nH]c4ccccc24)C(N)=O)C(C)C)NC(=O)[C@H](Cc2c[nH]c4ccccc24)NC(=O)[C@H](CCCCN)NC(=O)[C@H](Cc2c[nH]cn2)NC(=O)[C@H]([C@@H](C)O)NC(=O)[C@H](CCCNC(=N)N)NC(=O)[C@H](CO)NC3=O)NC(=O)[C@H](CCCCN)NC(=O)[C@H](CC(=O)O)NC(=O)[C@H](CC(N)=O)NC(=O)[C@H](CC(=O)O)NC(=O)[C@@H]2CCCN2C1=O` [GpTx-1(1-34)-Trp] was tested. Which IC50 [1] did it give?
A: Its IC50 is 0.009 µM.

Q: And the IC50 [2]?
A: Its IC50 is 2.66 µM.

Q: And the IC50 [3]?
A: The IC50 was 0.015 µM.

Q: For `CC[C@H](C)[C@@H]1NC(=O)[C@@H]2CSSC[C@@H]3NC(=O)[C@H](C(C)C)NC(=O)[C@H](CC(C)C)NC(=O)[C@H](CC(N)=O)NC(=O)[C@@H]4CCCN4C(=O)[C@H](CCCNC(=N)N)NC(=O)[C@H](CSSC[C@H](NC(=O)[C@@H](N)CC(=O)O)C(=O)N[C@@H](CC(C)C)C(=O)NCC(=O)N[C@@H](Cc4ccccc4)C(=O)N[C@@H](CC(C)C)C(=O)N[C@@H](CCCNC(=N)N)C(=O)N[C@@H](CCCCN)C(=O)N2)NC(=O)[C@H](CSSC[C@@H](C(=O)N[C@@H](CCCCN)C(=O)N[C@@H](Cc2ccc(O)cc2)C(=O)N[C@H](C(=O)N[C@@H](Cc2ccccc2)C(N)=O)C(C)C)NC(=O)[C@H](Cc2c[nH]c4ccccc24)NC(=O)[C@H](CCCCN)NC(=O)[C@H](Cc2cnc[nH]2)NC(=O)[C@H]([C@@H](C)O)NC(=O)[C@H](CCCNC(=N)N)NC(=O)[C@H](CO)NC3=O)NC(=O)[C@H](CCCCN)NC(=O)[C@H](CC(=O)O)NC(=O)[C@H](CC(N)=O)NC(=O)[C@H](CC(=O)O)NC(=O)[C@@H]2CCCN2C1=O` [SEQ ID NO: 244] (H-DCLGFLRKCIPDNDKCCRPNLVCSRTHKWCKYVF-NH2; disulfide 2-17, 9-23, 16-30), which IC50 [1] is on record?
A: Its IC50 is 0.026 µM.

Q: And the IC50 [4]?
A: The IC50 was 0.04 µM.

Q: What about the IC50 [3] of the same compound?
A: Its IC50 is 0.018 µM.

Q: And the IC50 [5]?
A: Its IC50 is 0.06 µM.

Q: What about the IC50 [6] of the same compound?
A: Its IC50 is 6.42 µM.

Q: Which results are given for `CC[C@H](C)[C@@H]1NC(=O)[C@@H]2CSSC[C@@H]3NC(=O)[C@H](C(C)C)NC(=O)[C@H](CC(C)C)NC(=O)[C@H](CC(N)=O)NC(=O)[C@@H]4CCCN4C(=O)[C@H](CCCNC(=N)N)NC(=O)[C@H](CSSC[C@H](NC(=O)[C@@H](N)CC(=O)O)C(=O)N[C@@H](CC(C)C)C(=O)NCC(=O)N[C@@H](Cc4ccc(I)cc4)C(=O)N[C@@H](CCSC)C(=O)N[C@@H](CCCNC(=N)N)C(=O)N[C@@H](CCCCN)C(=O)N2)NC(=O)[C@H](CSSC[C@@H](C(=O)N[C@@H](CCCCN)C(=O)N[C@@H](Cc2ccc(O)cc2)C(=O)N[C@H](C(=O)N[C@@H](Cc2ccccc2)C(N)=O)C(C)C)NC(=O)[C@H](Cc2c[nH]c4ccccc24)NC(=O)[C@H](CCCCN)NC(=O)[C@H](Cc2c[nH]cn2)NC(=O)[C@H]([C@@H](C)O)NC(=O)[C@H](CCCNC(=N)N)NC(=O)[C@H](CO)NC3=O)NC(=O)[C@H](CCCCN)NC(=O)[C@H](CC(=O)O)NC(=O)[C@H](CC(N)=O)NC(=O)[C@H](CC(=O)O)NC(=O)[C@@H]2CCCN2C1=O` [SEQ ID NO: 247]?
A: IC50 [1]: 0.247 µM; IC50 [4]: 0.02 µM; potency against NaV1.3, in words [3]: increased potency; IC50 [3]: 0.09 µM; IC50 [5]: 0.16 µM; IC50 [6]: 6.16 µM

Q: Which IC50 [2] does the source give for `CC[C@H](C)[C@@H]1NC(=O)[C@@H]2CSSC[C@@H]3NC(=O)[C@H](C(C)C)NC(=O)[C@H](CC(C)C)NC(=O)[C@H](CC(N)=O)NC(=O)[C@@H]4CCCN4C(=O)[C@H](CCCNC(=N)N)NC(=O)[C@H](CSSC[C@H](NC(=O)[C@@H](N)CC(=O)O)C(=O)N[C@@H](CC(C)C)C(=O)NCC(=O)N[C@@H](Cc4ccccc4)C(=O)N[C@@H](CCSC)C(=O)N[C@@H](CCCNC(=N)N)C(=O)N[C@@H](CCCCN)C(=O)N2)NC(=O)[C@H](CSSC[C@@H](C(=O)N[C@@H](CCCCN)C(=O)N[C@@H](Cc2cccc4ccccc24)C(=O)N[C@H](C(=O)N[C@@H](Cc2ccccc2)C(N)=O)C(C)C)NC(=O)[C@H](Cc2c[nH]c4ccccc24)NC(=O)[C@H](CCCCN)NC(=O)[C@H](Cc2cnc[nH]2)NC(=O)[C@H]([C@@H](C)O)NC(=O)[C@H](CCCNC(=N)N)NC(=O)[C@H](CO)NC3=O)NC(=O)[C@H](CCCCN)NC(=O)[C@H](CC(=O)O)NC(=O)[C@H](CC(N)=O)NC(=O)[C@H](CC(=O)O)NC(=O)[C@@H]2CCCN2C1=O` [[1-Nal32]GpTx-1(1-34)] (H-DCLGFMRKCIPDNDKCCRPNLVCSRTHKWCK[1Nal]VF-NH2; disulfide 2-17, 9-23, 16-30) here?
A: The IC50 was 0.988 µM.

Q: And the IC50 [3]?
A: The IC50 was 0.012 µM.

Q: With `CC[C@H](C)[C@@H]1NC(=O)[C@@H]2CSSC[C@@H]3NC(=O)[C@H](C(C)C)NC(=O)[C@H](CC(C)C)NC(=O)[C@H](CC(N)=O)NC(=O)[C@@H]4CCCN4C(=O)[C@H](CCCNC(=N)N)NC(=O)[C@H](CSSC[C@H](NC(=O)[C@@H](N)CC(=O)O)C(=O)N[C@@H](CC(C)C)C(=O)NCC(=O)N[C@@H](Cc4ccccc4)C(=O)N[C@@H](CCSC)C(=O)N[C@@H](CCCNC(=N)N)C(=O)N[C@@H](CCCCN)C(=O)N2)NC(=O)[C@H](CSSC[C@@H](C(=O)N[C@@H](CCCCN)C(=O)N[C@@H](Cc2ccc(O)cc2)C(=O)N[C@H](C(=O)N[C@@H](Cc2ccccc2)C(N)=O)C(C)C)NC(=O)[C@H](Cc2c[nH]c4ccccc24)NC(=O)[C@H](CCCCN)NC(=O)[C@H](Cc2cnc[nH]2)NC(=O)[C@H](CCCNC(=N)N)NC(=O)[C@H](CCCNC(=N)N)NC(=O)[C@H](CO)NC3=O)NC(=O)[C@H](CCCCN)NC(=O)[C@H](CC(=O)O)NC(=O)[C@H](CC(N)=O)NC(=O)[C@H](CC(=O)O)NC(=O)[C@@H]2CCCN2C1=O` [[Arg26]GpTx-1(1-34)] (H-DCLGFMRKCIPDNDKCCRPNLVCSRRHKWCKYVF-NH2; disulfide 2-17, 9-23, 16-30) as the compound, how does the IC50 [2] read?
A: The IC50 was 0.573 µM.

Q: And the IC50 [3]?
A: The IC50 was 0.01 µM.

Q: For `CC[C@H](C)[C@@H]1NC(=O)[C@@H]2CSSC[C@@H]3NC(=O)[C@H](C(C)C)NC(=O)[C@H](CC(C)C)NC(=O)[C@H](CC(N)=O)NC(=O)[C@@H]4CCCN4C(=O)[C@H](CCCNC(=N)N)NC(=O)[C@H](CSSC[C@H](NC(=O)[C@@H](N)CC(=O)O)C(=O)N[C@@H](CC(C)C)C(=O)NCC(=O)N[C@@H](Cc4ccccc4)C(=O)N[C@@H](CCSC)C(=O)N[C@@H](CCCNC(=N)N)C(=O)N[C@@H](CCCCN)C(=O)N2)NC(=O)[C@H](CSSC[C@@H](C(=O)N[C@@H](CCCCN)C(=O)N[C@@H](Cc2ccc(O)cc2)C(=O)N[C@H](C(=O)N[C@@H](Cc2ccccc2)C(N)=O)C(C)C)NC(=O)[C@H](Cc2c[nH]c4ccccc24)NC(=O)[C@H](CCCCN)NC(=O)[C@H](Cc2cnc[nH]2)NC(=O)[C@H](CCC(=O)O)NC(=O)[C@H](CCCNC(=N)N)NC(=O)[C@H](CO)NC3=O)NC(=O)[C@H](CCCCN)NC(=O)[C@H](CC(=O)O)NC(=O)[C@H](CC(N)=O)NC(=O)[C@H](CC(=O)O)NC(=O)[C@@H]2CCCN2C1=O` [[Glu26]GpTx-1(1-34)] (H-DCLGFMRKCIPDNDKCCRPNLVCSREHKWCKYVF-NH2; disulfide 2-17, 9-23, 16-30), which IC50 [1] is on record?
A: Its IC50 is 0.052 µM.

Q: What about the IC50 [3] of the same compound?
A: Its IC50 is 0.216 µM.
